Data from patent publication US20130072430A1, “METHODS FOR TREATMENT OR PROPHYLAXIS OF KIDNEY OR LIVER DYSFUNCTION” (NPS PHARMACEUTICALS, INC., priority 2010, published 2013).

Test system: Human patients with short bowel syndrome
Experiment: Example 1: kidney diagnostic biomarkers (urea nitrogen, creatinine, GFR) in short bowel syndrome patients, every four weeks for 24 weeks
Type: in vivo
Design: CREATININE (RATE BLANKED) Change from Baseline, Median / GFR, Median / GFR Change from Baseline, Median / UREA NITROGEN, Median / UREA NITROGEN Change from Baseline, Median: unit not given here
Conditions: 0.05 mg/kg/day; for CREATININE (RATE BLANKED), Median: unit assumed
Protocol: Human patients with short bowel syndrome were divided into three groups: a control group (16 total individuals) to receive placebo, an experimental group (35 total individuals) to receive teduglutide at 0.05 mg/kg/day throughout the study, and an experimental group (32 total individuals) to receive teduglutide at 0.1 mg/kg/day throughout the study. Patients were treated by subcutaneous injection of placebo or the appropriate dose of teduglutide. As individuals with short bowel syndrome are likely to experience associated liver and kidney disease, known biomarkers of liver and kidney function were monitored every four weeks, for 24 weeks. The liver biomarkers tested included total bilirubin, ALT and AST and ALP. The kidney biomarkers tested included urea nitrogen, creatinine and GFR. Before administration of placebo or teduglutide, diagnostic biomarker levels were tested to establish a baseline for each individual.
To visualize the effect of GLP-2 on the levels of the diagnostic biomarkers, the average change from baseline was calculated for the placebo and teduglutide treated groups for each visit after a baseline was established. The average change from baseline of each group is depicted in FIGS. […]. The numerical figures for each diaanostic biomarker at each time point are depicted in Table 1.
The raw data for this sorting is reproduced in Table 2 below.

CC[C@H](C)[C@H](NC(=O)[C@H](Cc1ccccc1)NC(=O)[C@H](CC(=O)O)NC(=O)[C@H](CCCNC(=N)N)NC(=O)[C@H](C)NC(=O)[C@H](C)NC(=O)[C@H](CC(C)C)NC(=O)[C@H](CC(N)=O)NC(=O)[C@H](CC(=O)O)NC(=O)[C@H](CC(C)C)NC(=O)[C@@H](NC(=O)[C@@H](NC(=O)[C@H](CC(N)=O)NC(=O)[C@H](CCSC)NC(=O)[C@H](CCC(=O)O)NC(=O)[C@H](CC(=O)O)NC(=O)[C@H](CO)NC(=O)[C@H](Cc1ccccc1)NC(=O)[C@H](CO)NC(=O)CNC(=O)[C@H](CC(=O)O)NC(=O)CNC(=O)[C@@H](N)Cc1c[nH]cn1)[C@@H](C)O)[C@@H](C)CC)C(=O)N[C@@H](CC(N)=O)C(=O)N[C@@H](Cc1c[nH]c2ccccc12)C(=O)N[C@@H](CC(C)C)C(=O)N[C@H](C(=O)N[C@@H](CCC(N)=O)C(=O)N[C@H](C(=O)N[C@@H](CCCCN)C(=O)N[C@H](C(=O)N[C@H](C(=O)N[C@@H](CC(=O)O)C(=O)O)[C@@H](C)O)[C@@H](C)CC)[C@@H](C)O)[C@@H](C)CC [teduglutide]
CREATININE (RATE BLANKED) Change from Baseline, Mean (SD) (DW4): 1.2 (12.01) | CREATININE (RATE BLANKED) Change from Baseline, Median (DW4): 1.5 | CREATININE (RATE BLANKED), Mean (SD) (DW4): 84.8 (30.01) | GFR Change from Baseline, Mean (SD) (DW4): −1.4 (12.80) | GFR Change from Baseline, Median (DW4): −0.6 | GFR, Mean (SD) (DW4): 86.1 (36.99) | GFR, Median (DW4): 77.0 | UREA NITROGEN Change from Baseline, Mean (SD) (DW4): −0.4 (2.16) | UREA NITROGEN Change from Baseline, Median (DW4): −0.4 | UREA NITROGEN, Mean (SD) (DW4): 5.3 (2.09) | UREA NITROGEN, Median (DW4): 4.9 | CREATININE (RATE BLANKED), Median (DW4): 80 µmol/L | CREATININE (RATE BLANKED) Change from Baseline, Mean (SD) (DW8): −1.1 (15.51) | CREATININE (RATE BLANKED) Change from Baseline, Median (DW8): 0.0 | CREATININE (RATE BLANKED), Mean (SD) (DW8): 81.9 (27.34) | GFR Change from Baseline, Mean (SD) (DW8): −0.1 (19.13) | GFR Change from Baseline, Median (DW8): 1.1 | GFR, Mean (SD) (DW8): 89.1 (39.16) | GFR, Median (DW8): 81.6 | UREA NITROGEN Change from Baseline, Mean (SD) (DW8): −0.4 (2.02) | UREA NITROGEN Change from Baseline, Median (DW8): −0.3 | UREA NITROGEN, Mean (SD) (DW8): 5.3 (1.58) | UREA NITROGEN, Median (DW8): 5.2 | CREATININE (RATE BLANKED), Median (DW8): 71 µmol/L | CREATININE (RATE BLANKED) Change from Baseline, Mean (SD) (DW12): 1.8 (16.71) | CREATININE (RATE BLANKED) Change from Baseline, Median (DW12): 8.0 | CREATININE (RATE BLANKED), Mean (SD) (DW12): 86.8 (29.41) | GFR Change from Baseline, Mean (SD) (DW12): −3.1 (12.18) | GFR Change from Baseline, Median (DW12): −5.0 | GFR, Mean (SD) (DW12): 85.7 (39.48) | GFR, Median (DW12): 76.5 | UREA NITROGEN Change from Baseline, Mean (SD) (DW12): −0.8 (1.86) | UREA NITROGEN Change from Baseline, Median (DW12): −0.5 | UREA NITROGEN, Mean (SD) (DW12): 4.8 (1.69) | UREA NITROGEN, Median (DW12): 4.4 | CREATININE (RATE BLANKED), Median (DW12): 80 µmol/L | CREATININE (RATE BLANKED) Change from Baseline, Mean (SD) (DW16): −1.6 (13.06) | CREATININE (RATE BLANKED) Change from Baseline, Median (DW16): 0.0 | CREATININE (RATE BLANKED), Mean (SD) (DW16): 82.1 (29.95) | GFR Change from Baseline, Mean (SD) (DW16): 0.8 (12.08) | GFR Change from Baseline, Median (DW16): 0.9 | GFR, Mean (SD) (DW16): 89.8 (38.02) | GFR, Median (DW16): 84.1 | UREA NITROGEN Change from Baseline, Mean (SD) (DW16): −0.5 (2.13) | UREA NITROGEN Change from Baseline, Median (DW16): −0.3 | UREA NITROGEN, Mean (SD) (DW16): 5.0 (1.73) | UREA NITROGEN, Median (DW16): 4.4 | CREATININE (RATE BLANKED), Median (DW16): 79 µmol/L | CREATININE (RATE BLANKED) Change from Baseline, Mean (SD) (DW20): 0.7 (13.11) | CREATININE (RATE BLANKED) Change from Baseline, Median (DW20): 0.0 | CREATININE (RATE BLANKED), Mean (SD) (DW20): 85.6 (28.77) | GFR Change from Baseline, Mean (SD) (DW20): −2.0 (16.60) | GFR Change from Baseline, Median (DW20): 0.9 | GFR, Mean (SD) (DW20): 83.2 (32.77) | GFR, Median (DW20): 74.0 | UREA NITROGEN Change from Baseline, Mean (SD) (DW20): −0.6 (1.94) | UREA NITROGEN Change from Baseline, Median (DW20): −0.3 | UREA NITROGEN, Mean (SD) (DW20): 5.0 (1.80) | UREA NITROGEN, Median (DW20): 5.2 | CREATININE (RATE BLANKED), Median (DW20): 77.5 µmol/L | CREATININE (RATE BLANKED) Change from Baseline, Mean (SD) (DW24): −2.9 (14.03) | CREATININE (RATE BLANKED) Change from Baseline, Median (DW24): −0.5 | CREATININE (RATE BLANKED), Mean (SD) (DW24): 82.8 (31.57)
